According to ChEMBL document CHEMBL1133317, “The solid phase synthesis of tetrahydroisoquinolines having cdc25B inhibitory activity” (Bioorg Med Chem Lett, 2000):

Target: T1, M-phase inducer phosphatase 2 (Homo sapiens, UniProt P30305)
T1 sequence (P30305 whole entry): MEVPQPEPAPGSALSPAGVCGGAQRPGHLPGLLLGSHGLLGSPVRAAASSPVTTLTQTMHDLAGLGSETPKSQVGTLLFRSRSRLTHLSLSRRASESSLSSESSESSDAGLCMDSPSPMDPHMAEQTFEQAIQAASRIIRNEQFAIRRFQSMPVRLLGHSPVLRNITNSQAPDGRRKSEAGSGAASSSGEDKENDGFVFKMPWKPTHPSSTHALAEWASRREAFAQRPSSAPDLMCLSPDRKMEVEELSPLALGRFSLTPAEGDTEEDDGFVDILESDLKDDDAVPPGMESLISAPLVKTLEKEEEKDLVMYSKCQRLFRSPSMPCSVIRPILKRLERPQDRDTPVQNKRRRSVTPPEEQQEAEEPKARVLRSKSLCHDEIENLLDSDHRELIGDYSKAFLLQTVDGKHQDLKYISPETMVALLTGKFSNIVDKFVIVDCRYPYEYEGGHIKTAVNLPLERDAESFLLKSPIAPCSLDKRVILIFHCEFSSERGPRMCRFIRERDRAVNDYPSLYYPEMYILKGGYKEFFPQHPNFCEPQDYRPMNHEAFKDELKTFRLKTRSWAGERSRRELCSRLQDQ
Assay: Compound was measured for its inhibitory activity against Cell division cycle 25B

IC50 [µM]	SMILES
35	Cc1ccc(/C=C/C(=O)N2Cc3c(cc(I)c(OCc4ccc(C(F)(F)F)cc4)c3I)C[C@H]2C(=O)O)cc1
15	O=C(O)[C@@H]1Cc2cc(I)c(OCc3ccc(Cl)cc3Cl)c(I)c2CN1C(=O)/C=C/c1cccc(C(F)(F)F)c1
30	O=C(O)[C@@H]1Cc2cc(I)c(OCc3ccc(Cl)cc3Cl)c(I)c2CN1C(=O)/C=C/c1ccc(Cl)c(Cl)c1
32	O=C(O)[C@@H]1Cc2cc(I)c(OCc3ccc(C(F)(F)F)cc3)c(I)c2CN1C(=O)/C=C/c1ccc2c(c1)OCO2
27	O=C(O)[C@@H]1Cc2cc(I)c(OCc3ccc(C(F)(F)F)cc3)c(I)c2CN1C(=O)/C=C/c1ccccc1C(F)(F)F
60	O=C(O)[C@@H]1Cc2cc(I)c(OCc3ccc(Cl)cc3Cl)c(I)c2CN1C(=O)/C=C/c1ccc2c(c1)OCO2
50	O=C(O)[C@@H]1Cc2cc(I)c(OCc3cccc(C(F)(F)F)c3)c(I)c2CN1C(=O)CCc1ccccc1
33	O=C(O)[C@@H]1Cc2cc(I)c(OCCCCl)c(I)c2CN1C(=O)/C=C/c1ccccc1Br
27	O=C(O)[C@@H]1Cc2cc(I)c(OCCCCl)c(I)c2CN1C(=O)/C=C/c1ccccc1Cl
40	O=C(O)[C@@H]1Cc2cc(I)c(OCc3ccc(Cl)cc3Cl)c(I)c2CN1C(=O)/C=C/c1cccc(F)c1

The remaining lines, values behind:

SMILES	IC50 [µM]
O=C(O)[C@@H]1Cc2cc(I)c(OCc3ccc(Cl)cc3Cl)c(I)c2CN1C(=O)/C=C/c1ccc(Cl)cc1	35
O=C(COc1c(I)cc2c(c1I)CN(C(=O)/C(F)=C/c1ccccc1)[C@H](C(=O)O)C2)OCc1ccccc1	90
O=C(O)[C@@H]1Cc2cc(I)c(OCc3ccccc3F)c(I)c2CN1C(=O)/C=C/c1cccc(Cl)c1	60
O=C(COc1c(I)cc2c(c1I)CN(C(=O)/C=C/c1ccccc1Br)[C@H](C(=O)O)C2)OCc1ccccc1	45
O=C(O)[C@@H]1Cc2cc(I)c(OCc3c(Cl)cccc3Cl)c(I)c2CN1C(=O)/C=C/c1ccc(Cl)c(Cl)c1	55
O=C(O)[C@@H]1Cc2cc(I)c(OCc3ccc(Cl)cc3Cl)c(I)c2CN1C(=O)/C=C/c1ccccc1Cl	15
O=C(O)[C@@H]1Cc2cc(I)c(OCc3ccc(Cl)cc3Cl)c(I)c2CN1C(=O)/C=C/c1cc(Cl)cc(Cl)c1	23
O=C(O)[C@@H]1Cc2cc(I)c(OCc3cccc(C(F)(F)F)c3)c(I)c2CN1C(=O)/C=C/c1ccc([N+](=O)[O-])cc1	50
O=C(O)[C@@H]1Cc2cc(I)c(OCc3ccc(C(F)(F)F)cc3)c(I)c2CN1C(=O)/C=C/c1ccc(Cl)cc1	30
COc1cccc(COc2c(I)cc3c(c2I)CN(C(=O)/C=C/c2ccc4c(c2)OCO4)[C@H](C(=O)O)C3)c1	58
O=C(O)[C@@H]1Cc2cc(I)c(OCc3ccc(Cl)cc3Cl)c(I)c2CN1C(=O)CCc1ccccc1	50
O=C(O)[C@@H]1Cc2cc(I)c(OCc3c(Cl)cccc3Cl)c(I)c2CN1C(=O)/C=C/c1cccc(C(F)(F)F)c1	35
O=C(O)[C@@H]1Cc2cc(I)c(OCCCCl)c(I)c2CN1C(=O)/C=C/c1ccc(Cl)cc1Cl	52
O=C(COc1c(I)cc2c(c1I)CN(C(=O)/C=C/c1ccccc1Cl)[C@H](C(=O)O)C2)OCc1ccccc1	70
O=C(O)[C@@H]1Cc2cc(I)c(OCc3c(Cl)cccc3Cl)c(I)c2CN1C(=O)c1cccnc1Cl	45
COc1cccc(COc2c(I)cc3c(c2I)CN(C(=O)/C=C/c2ccc([N+](=O)[O-])cc2)[C@H](C(=O)O)C3)c1	59
O=C(O)[C@@H]1Cc2cc(I)c(OCc3cccc(C(F)(F)F)c3)c(I)c2CN1C(=O)c1cccnc1Cl	30
O=C(O)[C@@H]1Cc2cc(I)c(OCc3cccc(C(F)(F)F)c3)c(I)c2CN1C(=O)/C=C/c1ccc(Cl)c(Cl)c1	75
O=C(O)[C@@H]1Cc2cc(I)c(OCc3ccc(C(F)(F)F)cc3)c(I)c2CN1C(=O)/C=C/c1ccccc1F	55
O=C(O)[C@@H]1Cc2cc(I)c(OCc3ccc(Cl)cc3Cl)c(I)c2CN1C(=O)/C=C/c1cccc(Cl)c1	35
